What was measured:
Assay type in all cases: cell-based
[1] = system: human ovarian cancer cell line SKOV3; test: Cell proliferation test by dispersing SKOV3 cells with growth factors (Experimental Example 4); settings: 10 days
Procedure: By a method similar to the preparation method of medium composition in Analysis Example 1, a medium composition containing 10 (v/v) % FBS, and 0.03 (w/v) % of low-molecular agar in DMEM (manufactured by Wako Pure Chemical Industries, Ltd.) was prepared.
Then, human ovarian cancer cell line SKOV3 (manufactured by DS PHARMA BIOMEDICAL CO., LTD.) was suspended in the above-mentioned medium composition containing low-molecular agar at 37,000 cells/mL, and dispensed to the wells of a 96 well flat plane ultra-low attachment surface microplate (manufactured by Corning Incorporated, #3474) at 135 μL per 1 well. The plate was stood in a CO2 incubator (37° C., 5% CO2), and a growth factor was added the next day. A similar operation was performed with 10 (v/v) % FBS-containing DMEM free of low-molecular agar. As a growth factor, human heparin bindability epithelial cell growth factor (hHB-EGF) (manufactured by PeproTech, Inc.) at a final concentration of 30 ng/mL or 100 ng/mL, human epithelial cell growth factor (hEGF) (manufactured by PeproTech, Inc.) and human transforming growth factor α (hTGFα) (manufactured by PeproTech, Inc.) each at a final concentration of 1 ng/mL, 3 ng/mL or 10 ng/mL were added by 15 μL per 1 well.
Successively, the plate was cultured in a standing state in a CO2 incubator (37° C., 5% CO2) for 10 days. As a negative control, DMEM in an amount equal to that of a growth factor was added. CellTiter-Glo Luminescent Cell Viability Assay (manufactured by Promega) (100 μL) was added to the cell culture medium after culturing for 10 days, stood for 10 min at room temperature, and the amount of luminescence was measured by a microplate reader (“FlexStation 3”, manufactured by Molecular Devices) and according to the protocol recommended by Promega. The amount of luminescence of the medium composition alone was subtracted, whereby the number of viable cells was measured.
The relative cell number when the amount of luminescence of the negative control is 1 was determined from the amount of luminescence (corresponding to the number of SKOV3 cells) after culturing for 10 days after the addition of the growth factor, and shown in Table 11.

[2] = system: Human liver cancer cell line HepG2; test: Evaluation of hepatotoxic substance by high content analysis (Experimental Example 9); settings: for average cell number per sphere / average dead cell number in sphere / average sphere number per 20 mm^2 / projected area: 0.03 (w/v)% low-molecular agar medium, 2 days with flutamide
Procedure: (§1) By a method similar to the preparation method of medium composition of Experimental Example 1, a medium composition containing 10 (v/v) % FBS and 0.03 (w/v) % of low-molecular agar (“ultraagar Ena”, manufactured by InaFood Industry) in DMEM (manufactured by Wako Pure Chemical Industries, Ltd.) was prepared. Human liver cancer cell line HepG2 (manufactured by DS PHARMA BIOMEDICAL CO., LTD.) was suspended in the above-mentioned medium composition containing low-molecular agar at 11,000 cells/mL. The above-mentioned cell suspension was dispensed to the wells of a 96 well flat bottom ultra-low attachment surface microplate (manufactured by Corning Incorporated, #3474) at 90 μL per 1 well, and the plate was cultured in a standing state in a CO2 incubator (37° C., 5% CO2) for 3 days. On day 3 of culture, flutamide (manufactured by Sigma-Aldrich) was added by 10 μL per 1 well. Successively, the plate was further cultured in a standing state in a CO2 incubator (37° C., 5% CO2) for 2 days. As a comparison control, HepG2 cells were suspended in DMEM containing 10 (v/v) % FBS and the suspension was dispensed to a 96 well flat bottom adhesion surface microplate (manufactured by Corning Incorporated, #3585), and a similar operation was performed.
Then, a solution of […] of Hoechst 33342 (manufactured by Invitrogen) in DMEM (phenol red, L-glutamine free) (manufactured by Wako Pure Chemical Industries, Ltd.) was prepared, and added, at 10 μL per 1 well, to each culture after static culture for 5 days using the above-mentioned low-molecular agar-containing medium and comparison control, and the mixture was stood in a CO2 incubator (37° C., 5% CO2) for 45 min. Successively, a solution of 20 μg/mL Propidium Iodide (manufactured by BIOMOL) in DMEM (phenol red, L-glutamine free) (manufactured by Wako Pure Chemical Industries, Ltd.) was prepared and added at 10 μL per 1 well, and the culture medium was suspended. The plate was centrifuged at 1,500 rpm for 1 min, and high content analysis was performed by cell image analysis using a cell imaging apparatus (“ArrayScan VTI HCS Reader”, manufactured by Thermo Fisher Scientific). At that time, observation was performed with 20 fields of view per well using a ×10 objective lens, cell outline and cell nucleus were detected from Hoechst33342 fluorescence image, and dead cells were detected from propidium iodide fluorescence image. In addition, 50% inhibitory concentration (μM) of flutamide by high content analysis was calculated from the number of cells constituting the spheres, with the value without addition of flutamide as 0% sphere formation inhibitory rate.
(§2) The number of constituent cells of HepG2 cell spheres, sphere number, projected area of sphere (size) (μm^2) and the dead cell number in the sphere, obtained from the cell imaging analysis, are shown in Table 26. Furthermore, the relative cell number when the amount of luminescence without addition of the anticancer agent is 100 was determined from the measurement results of the surviving cell number by luminescence, using the intracellular ATP as an index, and shown in Table 27. In addition, the 50% inhibitory concentration (μM) of flutamide calculated from the amount of luminescence based on intracellular ATP and constituent cell number obtained by high content analysis are shown in Table 28.

[3] = system: Human liver cancer cell line HepG2; test: Evaluation of hepatotoxic substance by CellTiter-Glo cell survival assay (Experimental Example 9); settings: for IC50: Homo sapiens, HepG2, cell survival assay by luminescence, read-out: 50% inhibitory concentration
Procedure: as §1
CellTiter-Glo Luminescent Cell Viability Assay (manufactured by Promega) (100 μL) was added to the low-molecular agar-containing culture medium and comparison control, the mixture was stood for 10 min at room temperature, and the amount of luminescence was measured by a microplate reader (“FlexStation 3”, manufactured by Molecular Devices) and according to the protocol recommended by Promega. The amount of luminescence of the medium alone was subtracted, whereby the number of viable cells was measured. In addition, 50% inhibitory concentration (μM) of flutamide by the amount of luminescence was calculated with the number of viable cells when flutamide was not added as 0% inhibition rate.
as §2

## hTGFα: human transforming growth factor α (PeproTech)
[1]; growth factor 1 ng/mL, low-molecular agar 0 (w/v)%
  relative cell number (negative control = 1): 1.448
[1]; growth factor 1 ng/mL, low-molecular agar 0.03 (w/v)%
  relative cell number (negative control = 1): 1.371
[1]; growth factor 3 ng/mL, low-molecular agar 0 (w/v)%
  relative cell number (negative control = 1): 1.445
[1]; growth factor 3 ng/mL, low-molecular agar 0.03 (w/v)%
  relative cell number (negative control = 1): 1.916
[1]; growth factor 10 ng/mL, low-molecular agar 0 (w/v)%
  relative cell number (negative control = 1): 1.512
[1]; growth factor 10 ng/mL, low-molecular agar 0.03 (w/v)%
  relative cell number (negative control = 1): 2.167

## CC(C)C(=O)Nc1ccc([N+](=O)[O-])c(C(F)(F)F)c1 [flutamide]
[2]; Homo sapiens, HepG2, high content analysis by cell image analysis, number of cells constituting the spheres, low-molecular agar-containing medium, read-out: 50% inhibitory concentration
  IC50: 73.4 µM
[2]; flutamide 0.8 μM
  average cell number per sphere: 7.977
  average dead cell number in sphere: 0.06
  average sphere number per 20 mm^2: 190.7
  projected area: 1988 μm^2
[2]; flutamide 4 μM
  average cell number per sphere: 8.89
  average dead cell number in sphere: 0.037
  average sphere number per 20 mm^2: 145.3
  projected area: 2180 μm^2
[2]; flutamide 20 μM
  average cell number per sphere: 9.263
  average dead cell number in sphere: 0.067
  average sphere number per 20 mm^2: 129.7
  projected area: 2403 μm^2
[2]; flutamide 100 μM
  average cell number per sphere: 3.76
  average dead cell number in sphere: 0.007
  average sphere number per 20 mm^2: 153.7
  projected area: 861 μm^2
[2]; flutamide 500 μM
  average cell number per sphere: 1.567
  average dead cell number in sphere: 1.163
  average sphere number per 20 mm^2: 7.3
  projected area: 408 μm^2
[3]; comparison control (DMEM, 10% FBS, adhesion surface plate)
  IC50: 51.7 µM
[3]; low-molecular agar containing medium
  IC50: 53.6 µM
[3]; flutamide 0.8 μM, comparison control (DMEM, 10% FBS, adhesion surface plate)
  relative cell number (no addition = 100): 100.2
[3]; flutamide 0.8 μM, low-molecular agar-containing medium
  relative cell number (no addition = 100): 109.6
[3]; flutamide 4 μM, comparison control (DMEM, 10% FBS, adhesion surface plate)
  relative cell number (no addition = 100): 109.6
[3]; flutamide 4 μM, low-molecular agar-containing medium
  relative cell number (no addition = 100): 98.7
[3]; flutamide 20 μM, comparison control (DMEM, 10% FBS, adhesion surface plate)
  relative cell number (no addition = 100): 93.5
[3]; flutamide 20 μM, low-molecular agar-containing medium
  relative cell number (no addition = 100): 89.8
[3]; flutamide 100 μM, comparison control (DMEM, 10% FBS, adhesion surface plate)
  relative cell number (no addition = 100): 22.5
[3]; flutamide 100 μM, low-molecular agar-containing medium
  relative cell number (no addition = 100): 22.4
[3]; flutamide 500 μM, comparison control (DMEM, 10% FBS, adhesion surface plate)
  relative cell number (no addition = 100): 15.4
[3]; flutamide 500 μM, low-molecular agar-containing medium
  relative cell number (no addition = 100): 8.1

Source: patent US10914725B2, “Culture medium additive, culture medium composition, and method for culturing cells or tissue using same” (NISSAN CHEMICAL INDUSTRIES, LTD., priority 2015, dated 2021)
